Data published in article PMC7399337, “Biological Properties and Absolute Configuration of Flavanones From Calceolaria thyrsiflora Graham” (Frontiers in Pharmacology, 2020).
In brackets after ≈: the same amount, converted by molar mass. Blank lines part the entries; values can stand above or below the compound they belong to.

How the values were obtained:
S. aureus MRSA 97-7 = assay: Antibacterial MIC, CLSI microdilution, human pathogens; format: cell-based; conditions: 18 h; for MIC: Staphylococcus aureus, read-out: Minimum inhibitory concentration (MIC)
Procedure: (§1) Briefly, stock solutions (5 mg/ml) of compounds in DMSO were diluted in Mueller-Hinton broth (MHB) to the different two-fold assay concentrations. […] The obtained solution was added to MHB and serially two-fold diluted in a 96-well microplate. A sample of 100 μL of inoculum 1.5 × 10^6 colony forming unit (CFU) ml^-1 in MHB was added and then incubated at 37°C for 18 h. The assay was repeated three times. Wells containing MHB, 100 μL of inoculum, and DMSO served as negative controls.

S. aureus NTCC8325-4 = assay: as above; format: cell-based; conditions: for MIC: Staphylococcus aureus, NTCC83254, 18 h, read-out: Minimum inhibitory concentration (MIC)
Procedure: as §1

E. coli ATCC25922 = assay: as above; format: cell-based; conditions: Escherichia coli, 18 h, read-out: Minimum inhibitory concentration (MIC)
Procedure: as §1

E. coli 33.1 = assay: as above; format: cell-based; conditions: Escherichia coli; E. coli 33.1 (multi-resistant); 18 h; read-out: Minimum inhibitory concentration (MIC)
Procedure: as §1

S. aureus MRSA 622-4 = assay: as above; format: cell-based; conditions: 18 h; for MIC: Staphylococcus aureus, read-out: Minimum inhibitory concentration (MIC)
Procedure: as §1

5-hLOX [1] = target: T1, 5-hLOX (Homo sapiens, UniProt P09917); assay: In vitro 5-hLOX enzyme assay (H2DCFDA fluorescence); format: biochemical; conditions: for Type of inhibition: 5-hLOX
T1 construct: purchased Cayman Chemicals Inc. (Ann Arbor, MI, USA)
T1 sequence (P09917 1-674): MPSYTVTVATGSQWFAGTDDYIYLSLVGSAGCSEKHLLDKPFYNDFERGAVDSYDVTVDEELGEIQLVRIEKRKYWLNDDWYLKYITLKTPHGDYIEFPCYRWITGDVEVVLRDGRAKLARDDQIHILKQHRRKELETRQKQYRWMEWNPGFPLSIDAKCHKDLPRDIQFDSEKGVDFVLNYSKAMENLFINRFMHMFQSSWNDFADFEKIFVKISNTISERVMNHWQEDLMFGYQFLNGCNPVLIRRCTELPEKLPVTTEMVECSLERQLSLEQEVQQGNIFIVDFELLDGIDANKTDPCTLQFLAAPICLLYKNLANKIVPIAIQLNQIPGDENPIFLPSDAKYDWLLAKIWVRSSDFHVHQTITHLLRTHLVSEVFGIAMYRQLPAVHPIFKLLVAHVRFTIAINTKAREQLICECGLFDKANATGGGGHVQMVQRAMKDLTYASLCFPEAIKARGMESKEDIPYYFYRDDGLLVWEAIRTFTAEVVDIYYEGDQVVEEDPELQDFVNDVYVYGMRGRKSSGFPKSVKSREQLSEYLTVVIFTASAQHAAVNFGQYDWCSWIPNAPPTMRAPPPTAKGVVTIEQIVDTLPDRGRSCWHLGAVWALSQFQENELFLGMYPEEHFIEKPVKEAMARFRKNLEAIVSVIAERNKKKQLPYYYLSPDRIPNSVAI
Procedure: The commercially available enzyme 5-hLOX from Cayman Chemicals Inc. (Ann Arbor, MI, USA), was diluted (1:500) in the assay buffer. This contained 4-(2-hydroxyethyl)-1-piperazineethane sulfonic acid (HEPES) 50 mM, ethylenediamine tetraacetic acid (EDTA) 2 mM, adenosine triphosphate (ATP) 10 μM, and CaCl2 10 μM at pH 7.5) admixed with 10 μM of H2DCFDA. The reaction mixture was incubated for 15 min in the assay plate. Later, 280 μL of buffer and 10 μM of inhibitors were added per well and incubated for 30 min at 37°C. Finally, the reaction was started by adding a suitable concentration of arachidonic acid (0.5 μM) and the fluorescence was read in a multimode detector Synergy™ HT Multi-Mode Microplate Reader (Biotek, Bad Friedrichshall, Germany) […] after incubation at room temperature for 1 h. The IC50 values were obtained for analysis of oxidation of H2DCFDA dye to the highly fluorescent 2’,7’-dichloro-fluorescein (DCF) using the non-linear curve-fitting program. […] All data were collected in duplicate and the assays were performed on different days to ensure reproducibility.

[2] = In vitro cytotoxic activity, CyQuant cell viability, 72 h; format: cell-based; conditions: mouse
Procedure: (§2) The used cell lines include MDA-MB-231 human breast adenocarcinoma cells, B16-F10 mouse metastatic melanoma cells and MEF primary mouse embryonic fibroblast. Cells were maintained in a DMEM high glucose medium (Mediatech, Manassas, VA, USA) supplemented with 10% (MDA-MB-231 and B16-F10) or 15% (MEF) heat-inactivated fetal bovine serum (HyClone Laboratories, South Logan, USA), 100 IU ml^-1 penicillin and 100 μg ml^-1 streptomycin while maintained at 37°C in a 5% CO2 humidified atmosphere. Cell viability was measured using a CyQuant® Direct Cell Proliferation Assay Kit (Life Technologies, Grand Island, NY, USA) following the manufacturer’s instruction. Briefly, 5,000 cells per well were seeded onto a flat-bottom 96-well plate in 200 μL final volume. Six hours after seeding, the culture medium was replaced by the medium containing the tested compounds at 0.01 to 100 µM concentrations in DMSO (0.1% final concentration) during 72 h. Untreated cells (medium containing only 0.1% DMSO) were used as controls. At the end of the incubation, 100 μL of culture medium was removed from each well and replaced by detection reagent solution provided by the kit (which is a 1:5 mixture of the reagent CyQUANT®, direct nucleic acid stain and the reagent labeled as CyQUANT® direct background suppressor I). Cells were incubated for 1 h and fluorescence emission was measured at 535 nm with excitation at 480 nm in a microplate reader (Infinite 200 PRO, Tecan, Grödig, Austria). At least four independent experiments were performed for each concentration. The results from each experiment were transformed into percentage of controls and the LC50 values were graphically obtained from the dose-response curves. The LC50 value was obtained adjusting the dose-response curve to sigmoidal curves (variable slope) using the GraphPad Prisma 6.0 software ([GraphPad-Software, 2015]).

[3] = test system: MDA-MB-231 human breast adenocarcinoma cells; assay: as above; format: cell-based; conditions: Homo sapiens, MDA-MB-231, 72 h, read-out: LC50 ± SD
Procedure: as §2

[4] = test system: B16-F10 mouse metastatic melanoma cells; assay: as above; format: cell-based; conditions: Mus musculus, B16-F10, 72 h, read-out: LC50 ± SD
Procedure: Cell viability was measured using a CyQuant® Direct Cell Proliferation Assay Kit (Life Technologies, Grand Island, NY, USA) following the manufacturer’s instruction. Briefly, 5,000 cells per well were seeded onto a flat-bottom 96-well plate in 200 μL final volume. Six hours after seeding, the culture medium was replaced by the medium containing the tested compounds at 0.01 to 100 µM concentrations in DMSO (0.1% final concentration) during 72 h. Untreated cells (medium containing only 0.1% DMSO) were used as controls. At the end of the incubation, 100 μL of culture medium was removed from each well and replaced by detection reagent solution provided by the kit (which is a 1:5 mixture of the reagent CyQUANT®, direct nucleic acid stain and the reagent labeled as CyQUANT® direct background suppressor I). […] At least four independent experiments were performed for each concentration.

bacterial growth = test system: bacterial growth; parameters: method as in Bravo et al., 2005; conditions: high concentrations (1,000 µg/ml); ref Bravo et al., 2005; cited from earlier work
5-hLOX [5] = target: T1, 5-hLOX; assay: In vitro 5-hLOX enzyme assay (H2DCFDA fluorescence); format: biochemical; conditions: kinetic assays, inhibitor 0–1 μM, substrate 0.2–5 μM
S. aureus ATCC = test system: S. aureus ATCC; parameters: method as in Bravo et al., 2005; conditions: 250 µg/ml; ref Bravo et al., 2005; cited from earlier work
B. cinerea = assay: In vitro fungicidal activity, radial mycelial growth test on PDA; format: cell-based; conditions: Botrytis cinerea, 72 h, read-out: Percentage of inhibition on in vitro mycelial growth of B. cinerea
Procedure: (§3) A strain of Botrytis cinerea isolated from a naturally infected grape (Vitis vinifera) was used in all experiments. Isolated Phytophtora cinnamomi was provided by the Agricultural and Livestock Service of Valparaíso. Both strains were maintained on a potato dextrose agar (PDA) medium (DIFCO, Detroit, MI) at 4°C. The inoculum of both pathogens was grown on PDA and incubates in dark at 23°C for 5 days in the case of B. cinerea and 8 days for P. cinnamomi.
(§4) The fungicidal activity of flavanones, extracts, the negative control (C-) composed of solvent (1% ethanol), and the positive control (C+, commercial fungicide Captan® and metalaxil® for B. cinerea and P. cinnamomi, respectively) were assessed using the radial growth test technique on PDA medium as described ([Taborga et al., 2015]). All test samples were dissolved in ethanol (1%) and water, to obtain final concentrations of 50, 150, and 250 mg/L in the PDA medium. A plug (4 mm) of PDA medium with five-day-old mycelium colonies of the pathogen was placed at the center of a Petri dish with PDA medium with or without studied test samples and were incubated at 23°C in dark for 72 h (B. cinerea) and 120 h (P. cinnamomi). After incubation, the diameters of colonies were measured and the inhibition percentage was calculated as the average of three replicas compared to C-.

P. cinnamomi = assay: as above; format: cell-based, Phytophtora cinnamomi; conditions: 120 h
Procedure: as §3, §4

MIC (S. aureus MRSA 97-7): > 100 µg/mL | MIC (S. aureus NTCC8325-4): > 100 µg/mL | MIC (E. coli ATCC25922): > 100 µg/mL | MIC (E. coli 33.1): > 100 µg/mL | MIC (S. aureus MRSA 622-4): > 100 µg/mL | inhibition at 10 µM (5-hLOX [1]; Flavanones at 10 µM): 11.7 ± 2.45%
SMILES: COc1cc(C2CC(=O)c3c(O)cc(O)cc3O2)ccc1O (stereo not shown) [Compound 4, 3’-methoxy-4’,5,7-trihydroxyflavanone]

SMILES: COc1cc([C@@H]2c3cc4c(cc3[C@@H](O[C@@H]3O[C@@H]5CO[C@@H](C)O[C@H]5[C@H](O)[C@H]3O)[C@H]3COC(=O)[C@H]23)OCO4)cc(OC)c1O [Etoposide, reference compound]
CC50 at 72 h [2]: 1030 ± 170 nM | CC50 [3]: 1330 ± 280 nM | CC50 [4]: 1740 ± 320 nM

Minimum inhibitory concentration (MIC) (S. aureus MRSA 97-7): 25 µg/mL (≈ 17.3 µM) | Minimum inhibitory concentration (MIC) (S. aureus NTCC8325-4; 18 h): 3,5 µg/ml | Minimum inhibitory concentration (MIC) (S. aureus MRSA 622-4): 5 µg/mL (≈ 3.45 µM)
SMILES: CN[C@H](CC(C)C)C(=O)N[C@H]1C(=O)N[C@@H](CC(N)=O)C(=O)N[C@H]2C(=O)N[C@H]3C(=O)N[C@H](C(=O)N[C@H](C(=O)O)c4cc(O)cc(O)c4-c4cc3ccc4O)[C@H](O)c3ccc(c(Cl)c3)Oc3cc2cc(c3O[C@@H]2O[C@H](CO)[C@@H](O)[C@H](O)[C@H]2O[C@H]2C[C@](C)(N)[C@H](O)[C@H](C)O2)Oc2ccc(cc2Cl)[C@H]1O [Vancomicin, reference compound]

SMILES: O=C1Nc2ccc(O)cc2OC1O (stereo not shown) [Compound 7-OH-HBOA, 2,7-dihydroxy-2H-1,4-benzoxazin-3(4H)-one]
inhibitory activity of bacterial growth (bacterial growth): inhibitory activity

SMILES: O=C1Nc2ccccc2OC1O (stereo not shown) [HBOA, 2-dydroxy-2H-1,4-benzoxazin-3(4H)-one]
inhibitory activity of bacterial growth (bacterial growth): inhibitory activity

SMILES: O=c1[nH]c2ccccc2o1 [BOA, 2-benzoxazolinone]
inhibitory activity of bacterial growth (bacterial growth): inhibitory activity

MIC (S. aureus MRSA 97-7): > 100 µg/mL | MIC (S. aureus NTCC8325-4): > 100 µg/mL | MIC (E. coli ATCC25922): > 100 µg/mL | MIC (E. coli 33.1): > 100 µg/mL | MIC (S. aureus MRSA 622-4): > 100 µg/mL | Type of inhibition (5-hLOX [1]): competitive | inhibition at 10 µM (5-hLOX [1]; Flavanones at 10 µM): 88 ± 0.678% | IC50 (5-hLOX [1]; read-out: IC50 (5-hLOX)): 220 nM | Ki (5-hLOX [5]): 70 nM
SMILES: O=C1CC(c2ccc(O)c(O)c2)Oc2cc(O)cc(O)c21 (stereo not shown) [Compound 3, 5,7,3’,4’-Tetrahydroxyflavanone]

SMILES: CC(Cc1ccc(O)c(O)c1)C(C)Cc1ccc(O)c(O)c1 (stereo not shown) [NDGA, nordihydroguaiaretic acid, reference compound]
Type of inhibition (5-hLOX [1]): competitive | % of inhibition (5-hLOX) (5-hLOX [1]; Flavanones at 10 µM): 93 ± 5.870%

MIC (E. coli ATCC25922): 60 µg/mL (≈ 172 µM) | MIC (E. coli 33.1): > 100 µg/mL
SMILES: CC1(C)S[C@@H]2[C@H](NC(=O)[C@H](N)c3ccccc3)C(=O)N2[C@H]1C(=O)O [Ampicillin, reference compound]

SMILES: O=C(O)c1cc(O)c(O)c(O)c1 [gallic acid]
inhibitory activity of bacterial growth (bacterial growth): inhibitory activity | inhibition activity of S. aureus ATCC (S. aureus ATCC): 67.2%

SMILES: O=C1C2CC=CCC2C(=O)N1SC(Cl)(Cl)Cl (stereo not shown) [Captan]
inhibition at 50 µg/mL (B. cinerea; 50 mg/L): 94 ± 5.2% | inhibition at 150 µg/mL (B. cinerea; 150 mg/L): 100 ± 0.1% | inhibition at 250 µg/mL (B. cinerea; 250 mg/L): 100 ± 0.2%

SMILES: CC(=O)O[C@H]1C(=O)[C@@]2(C)[C@H]([C@H](OC(=O)c3ccccc3)[C@]3(O)C[C@H](OC(=O)[C@H](O)[C@@H](NC(=O)c4ccccc4)c4ccccc4)C(C)=C1C3(C)C)[C@]1(OC(C)=O)CO[C@@H]1C[C@@H]2O [Taxol, reference compound]
CC50 at 72 h [2]: 400 ± 70 nM | CC50 [3]: 210 ± 480 nM | CC50 [4]: 480 ± 80 nM

SMILES: O=C1C(O)Oc2ccccc2N1O (stereo not shown) [DIBOA, 2,4-dihydroxy-2H-1,4-benzoxazin-3(4H)-one]
inhibitory activity of bacterial growth (bacterial growth): inhibitory activity

SMILES: COCC(=O)N(c1c(C)cccc1C)C(C)C(=O)OC (stereo not shown) [Metalaxil, reference compound]
Percentage of inhibition on in vitro mycelial growth of P. cinnamomi (P. cinnamomi; 50 mg/L): 100 ± 0.2% | Percentage of inhibition on in vitro mycelial growth of P. cinnamomi (P. cinnamomi; 150 mg/L): 100 ± 0.1% | Percentage of inhibition on in vitro mycelial growth of P. cinnamomi (P. cinnamomi; 250 mg/L): 100 ± 0.1%
